Columns and labels:
CRC lung metastases = test: 5-FU treatment monitored with PRISM, CRC lung metastasis model; format: in vivo, mice
Source text: (§1) After validation of the efficacy of tailored PRISM nanoparticles, these sensors were applied to study how proteolytic activities correlate with changes in the progression of disease over time and in response to drug treatment. In addition, molecular imaging was safely performed for any lesion for multiple times, providing information related to regional heterogeneity in a given tumor. To evaluate PRISM in monitoring treatment responses, mice were grouped into two categories (n=5 each) to allow monitoring the effect of standard chemotherapy 5-FU treatment: one group received drug (15 mg/kg) by i.p. injection (daily injection for 4 days and once every other day till end of study); and the second group received vehicle as control. To monitor therapeutic responses in treating metastases, PRISM was intravenously injected in each group of mice. After 1 hr of sensor injection, urinary reporter level was assayed to track local proteolytic activity, reflecting tumor invasion capacity. At 6 hrs post-injection, mice were scanned using a small animal PET/CT imager for longitudinal assessment of the tumor progression. […] Real-time images were analyzed and standard uptake value of radioactive reporters were quantified using VivoQuant software.
To monitor therapeutic responses when metastases in the CRC lung metastasis model were treated, PRISM was again intravenously injected in two group of mice on a weekly basis. One hour following sensor injection, urinary reporter level was read to track the local proteolytic activity. […] 6 hours after sensor injection, PET/CT were applied to monitor tumor growth or regression, which provides a longitudinal, noninvasive assessment of the efficacy of anti-tumor drug treatment. […] Consistently, the relative lung/liver ratio of PET/CT signal in the cohort that received no treatment was over 3 times higher than that of the cohort treated with chemotherapy (n=5) (FIG. 6G).

CRC liver metastases = test: 5-FU treatment monitored with PRISM, CRC liver metastasis model; format: in vivo, mice; conditions: 5-FU 15 mg/kg i.p.
Source text: as §1

`O=c1[nH]cc(F)c(=O)[nH]1` [5-FU] was tested, and the “urinary reporter level vs untreated control group” value (CRC lung metastases; 5-FU treated mice, urine one hour after PRISM injection) was “Significantly reduced urinary reporter levels”, the “tumor growth vs untreated controls” value (CRC lung metastases; PET/CT 6 hours after sensor injection) was “slower tumor growth” and the “relative lung/liver ratio of PET/CT signal, untreated cohort relative to 5-FU treated cohort” value (CRC lung metastases; n=5, FIG. 6G) was “over 3 times”. For the same compound, the “tumor progression / tumor growth vs untreated” value (CRC liver metastases; started two weeks after tumor inoculation, PET/CT) was “significantly inhibited tumor progression” and the “urinary reporter level vs non-treated cohort” value (CRC liver metastases; urine 1 hr after PRISM injection) was “decreased urinary reporter level”.

Reference: patent US11835522B2, “Sensors for detecting and imaging of cancer metastasis” (Massachusetts Institute of Technology, priority 2019, dated 2023)
